Reference: PubChem BioAssay AID330 (DTP/NCI, 2004)
Values joined by “and” are separate entries in the source; they are usually repeats but may differ in a detail not shown here. Equal entries are not always repeated. Inconclusive results and toxic doses are left out.

Test system: P388 leukemia ip, CD2F1 mice, survival T/C
Assay: NCI In Vivo Anticancer Drug Screen. Data for tumor model P388 Leukemia (intraperitoneal) in CD2F1 (CDF1) mice
Details: endpoint: median survival time, higher = longer survival
Summary of the method: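 Mice carrying the transplanted tumor received test compound or vehicle. Survival was recorded in each group, and the value is the treated-group measurement divided by that of the vehicle-treated control group.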

[1] = dose: 12.5 mg/kg/injection, schedule: Q01DX009 (ip), vehicle: distilled water + Tween-80
[2] = dose: 25.0 mg/kg/injection, schedule: Q01DX009 (ip), vehicle: distilled water + Tween-80
[3] = dose: 50.0 mg/kg/injection, schedule: Q01DX009 (ip), vehicle: distilled water + Tween-80
[4] = dose: 100.0 mg/kg/injection, schedule: Q01DX009 (ip), vehicle: distilled water + Tween-80
[5] = dose: 50.0 mg/kg/injection, schedule: Q01DX005 (ip), vehicle: saline with Tween-80
[6] = dose: 100.0 mg/kg/injection, schedule: Q01DX005 (ip), vehicle: saline with Tween-80
[7] = dose: 200.0 mg/kg/injection, schedule: Q01DX005 (ip), vehicle: saline with Tween-80

For `c1ccc(-c2c[s+]cs2)cc1`, the T/C (dose: 6.25 mg/kg/injection, schedule: Q01DX009 (ip), vehicle: distilled water + Tween-80) was 111 % of control, the T/C [1] was 107 % of control and 114 % of control and the T/C [2] was 121 % of control and 123 % of control. The T/C [3] was 104 % of control and the T/C [4] was 114 % of control.

For `C/C(=N\NC(=S)N1CCN(c2ncccn2)CC1)c1ccccn1`, the T/C (dose: 6.25 mg/kg/injection, schedule: Q01DX005 (ip), vehicle: saline with Tween-80) was 119 % of control and the T/C (dose: 12.5 mg/kg/injection, schedule: Q01DX005 (ip), vehicle: saline with Tween-80) was 119 % of control.

In the case of `Cc1c(COC(=O)NC(C)C)c(COC(=O)NC(C)C)c2c3ccccc3c3ccccc3n12`, the T/C [1] is reported as 180 % of control, the T/C [2] is reported as 173 % of control and the T/C [3] is reported as 110 % of control. For the same molecule, the T/C [4] was 88 % of control.

With `N#CN(Cc1ccccc1)C(c1ccccc1)(c1ccccc1)c1ccccc1` the T/C (dose: 100.0 mg/kg/injection, schedule: Q01DX001 (ip), vehicle: Klucel (hydroxypropylcellulose) (HPC)) was 90 % of control and the T/C (dose: 200.0 mg/kg/injection, schedule: Q01DX001 (ip), vehicle: Klucel (hydroxypropylcellulose) (HPC)) was 91 % of control.

`CN(c1ncc(Cc2cnc(N(C)C3CCN(Cc4ccccc4)CC3)nc2)cn1)C1CCN(Cc2ccccc2)CC1` was tested, and the T/C [5] was 93 % of control, the T/C [6] was 96 % of control and the T/C [7] was 92 % of control.

In the case of `CC(=O)OCC1OC(CC(=O)c2ccccc2)C=CC1OC(C)=O` (centres undefined), the T/C (dose: 25.0 mg/kg/injection, schedule: Q01DX005 (ip), vehicle: saline with Tween-80) is reported as 99 % of control, the T/C [5] is reported as 102 % of control and 101 % of control and the T/C [6] is reported as 100 % of control and 106 % of control. The T/C [7] was 97 % of control and 106 % of control.

For `CCC(C)(C)c1cccc(C(=O)O)c1O`, the T/C (dose: 25.0 mg/kg/injection, schedule: Q04DX003 (ip), vehicle: saline with Tween-80) was 100 % of control, the T/C (dose: 50.0 mg/kg/injection, schedule: Q04DX003 (ip), vehicle: saline with Tween-80) was 118 % of control and the T/C (dose: 100.0 mg/kg/injection, schedule: Q04DX003 (ip), vehicle: saline with Tween-80) was 106 % of control and 112 % of control.

With `O=[N+]([O-])c1cc2[nH]cnc2c([N+](=O)[O-])c1NCc1ccccc1` the T/C (dose: 100.0 mg/kg/injection, schedule: Q04DX002 (ip), vehicle: saline with Tween-80) was 98 % of control and the T/C (dose: 200.0 mg/kg/injection, schedule: Q04DX002 (ip), vehicle: saline with Tween-80) was 97 % of control.

With `CC(C1CC/C(=N/NC(N)=O)C1)[N+](=O)[O-]` (centres undefined) the T/C [1] was 100 % of control, the T/C [2] was 91 % of control and the T/C [3] was 90 % of control. The T/C [4] was 100 % of control and the T/C (dose: 200.0 mg/kg/injection, schedule: Q01DX009 (ip), vehicle: distilled water + Tween-80) was 92 % of control.

`COc1cccc2c1C(=O)c1c(O)c3c(c(O)c1C2=O)C[C@@](O)(/C=N\O)C[C@@H]3OC1CC(N)C(O)C(C)O1` (some centres undefined) was tested, and the T/C (dose: 3.13 mg/kg/injection, schedule: Q04DX003 (ip), vehicle: water) was 109 % of control, the T/C (dose: 6.25 mg/kg/injection, schedule: Q04DX003 (ip), vehicle: water) was 118 % of control and the T/C (dose: 12.5 mg/kg/injection, schedule: Q04DX003 (ip), vehicle: water) was 116 % of control. For the same molecule, the T/C (dose: 25.0 mg/kg/injection, schedule: Q04DX003 (ip), vehicle: water) was 111 % of control and the T/C (dose: 50.0 mg/kg/injection, schedule: Q04DX003 (ip), vehicle: water) was 163 % of control.

With `COc1cccc(-c2ccncc2)c1` the T/C [5] was 102 % of control, the T/C [6] was 93 % of control and the T/C [7] was 93 % of control.

For `COc1ccc2oc3cc4c(c(O)c3c(=O)c2c1CC=C(C)C)C=CC(C)(C)O4`, the T/C (dose: 50.0 mg/kg/injection, schedule: Q01DX005 (ip), vehicle: Klucel (hydroxypropylcellulose) (HPC)) was 88 % of control, the T/C (dose: 100.0 mg/kg/injection, schedule: Q01DX005 (ip), vehicle: Klucel (hydroxypropylcellulose) (HPC)) was 86 % of control and the T/C (dose: 200.0 mg/kg/injection, schedule: Q01DX005 (ip), vehicle: Klucel (hydroxypropylcellulose) (HPC)) was 87 % of control.

With `O=c1c(O)c(-c2cc(O)c(O)c(O)c2)oc2cc(O)cc(O)c12` the T/C (dose: 6.25 mg/kg/injection, schedule: Q01DX009 (ip), vehicle: Klucel (hydroxypropylcellulose) (HPC)) was 105 % of control, the T/C (dose: 12.5 mg/kg/injection, schedule: Q01DX009 (ip), vehicle: Klucel (hydroxypropylcellulose) (HPC)) was 112 % of control and the T/C (dose: 25.0 mg/kg/injection, schedule: Q01DX009 (ip), vehicle: Klucel (hydroxypropylcellulose) (HPC)) was 124 % of control. The T/C (dose: 100.0 mg/kg/injection, schedule: Q01DX009 (ip), vehicle: other) was 89 % of control and the T/C (dose: 200.0 mg/kg/injection, schedule: Q01DX009 (ip), vehicle: other) was 98 % of control.

With `O=C1CCC(C(=O)N2CCCC2)N1` (centres undefined) the T/C (dose: 50.0 mg/kg/injection, schedule: Q01DX005 (ip), vehicle: saline) was 96 % of control and 100 % of control, the T/C (dose: 100.0 mg/kg/injection, schedule: Q01DX005 (ip), vehicle: saline) was 104 % of control and 98 % of control and the T/C (dose: 200.0 mg/kg/injection, schedule: Q01DX005 (ip), vehicle: saline) was 104 % of control and 97 % of control.

In the case of `O=CC=O`, the T/C (dose: 25.0 mg/kg/injection, schedule: Q01DX009 (ip), vehicle: saline) is reported as 98 % of control, the T/C (dose: 50.0 mg/kg/injection, schedule: Q01DX009 (ip), vehicle: saline with Tween-80) is reported as 116 % of control and the T/C (dose: 50.0 mg/kg/injection, schedule: Q01DX009 (ip), vehicle: saline) is reported as 120 % of control. The T/C (dose: 200.0 mg/kg/injection, schedule: Q01DX009 (ip), vehicle: saline with Tween-80) was 152 % of control and the T/C (dose: 200.0 mg/kg/injection, schedule: Q01DX009 (ip), vehicle: saline) was 88 % of control.

With `COc1ccc(CCNC2=CC(=O)CCC2)cc1OC` the T/C [5] was 101 % of control, the T/C [6] was 99 % of control and the T/C [7] was 101 % of control.

`C/C(=N/NC(N)=O)c1cccc(/C(C)=N/NC(N)=O)n1.[Cl][Cu][Cl]` was tested, and the T/C (dose: 3.12 mg/kg/injection, schedule: Q01DX009 (ip), vehicle: saline) was 108 % of control, the T/C (dose: 6.25 mg/kg/injection, schedule: Q01DX009 (ip), vehicle: saline) was 94 % of control and the T/C (dose: 12.5 mg/kg/injection, schedule: Q01DX009 (ip), vehicle: saline) was 99 % of control.

In the case of `CC(=O)OC1C(C)OC(OC(=O)C2CCC3C(C2)OC2(CC(OC(=O)/C=C/c4ccccc4)C(C)CO2)C32CO2)C(OC2OC(C)C(O)C(OC(C)=O)C2O)C1O` (centres undefined), the T/C (dose: 0.62 mg/kg/injection, schedule: Q01DX009 (ip), vehicle: saline + alcohol) is reported as 97 % of control, the T/C (dose: 0.75 mg/kg/injection, schedule: Q01DX005 (ip), vehicle: saline + alcohol) is reported as 97 % of control and the T/C (dose: 1.25 mg/kg/injection, schedule: Q01DX009 (ip), vehicle: saline + alcohol) is reported as 105 % of control. The T/C (dose: 1.5 mg/kg/injection, schedule: Q01DX005 (ip), vehicle: saline + alcohol) was 106 % of control, the T/C (dose: 1.67 mg/kg/injection, schedule: Q01DX009 (ip), vehicle: saline + alcohol) was 113 % of control and the T/C (dose: 1.75 mg/kg/injection, schedule: Q01DX009 (ip), vehicle: saline + alcohol) was 104 % of control. For the same molecule, the T/C (dose: 2.5 mg/kg/injection, schedule: Q01DX009 (ip), vehicle: saline + alcohol) was 105 % of control, the T/C (dose: 3.0 mg/kg/injection, schedule: Q01DX005 (ip), vehicle: saline + alcohol) was 114 % of control and the T/C (dose: 3.5 mg/kg/injection, schedule: Q01DX009 (ip), vehicle: saline + alcohol) was 108 % of control. The T/C (dose: 5.0 mg/kg/injection, schedule: Q01DX009 (ip), vehicle: saline + alcohol) was 106 % of control, the T/C (dose: 6.0 mg/kg/injection, schedule: Q01DX005 (ip), vehicle: saline + alcohol) was 115 % of control and the T/C (dose: 6.68 mg/kg/injection, schedule: Q01DX009 (ip), vehicle: saline + alcohol) was 152 % of control. The T/C (dose: 7.0 mg/kg/injection, schedule: Q01DX009 (ip), vehicle: saline + alcohol) was 110 % of control, the T/C (dose: 13.35 mg/kg/injection, schedule: Q01DX009 (ip), vehicle: saline + alcohol) was 111 % of control and the T/C (dose: 14.0 mg/kg/injection, schedule: Q01DX009 (ip), vehicle: saline + alcohol) was 118 % of control.

`C=COC(=O)C(Cc1ccc(F)cc1)NC(=O)OCc1ccccc1` (centres undefined) was tested, and the T/C (dose: 100.0 mg/kg/injection, schedule: Q04DX002 (ip), vehicle: Klucel (hydroxypropylcellulose) (HPC)) was 103 % of control, the T/C (dose: 200.0 mg/kg/injection, schedule: Q04DX002 (ip), vehicle: Klucel (hydroxypropylcellulose) (HPC)) was 97 % of control and the T/C (dose: 400.0 mg/kg/injection, schedule: Q04DX002 (ip), vehicle: Klucel (hydroxypropylcellulose) (HPC)) was 97 % of control.

For `CC(=O)c1ccc(NN=NCCF)cc1`, the T/C (dose: 1.56 mg/kg/injection, schedule: Q01DX009 (ip), vehicle: water) was 107 % of control, the T/C (dose: 6.25 mg/kg/injection, schedule: Q01DX009 (ip), vehicle: water) was 154 % of control and the T/C [1] was 271 % of control.

With `Oc1cc2c(cc1C(c1ccc3c(c1)OCO3)N1CCCC1)OCO2` (centres undefined) the T/C (dose: 60.0 mg/kg/injection, schedule: Q01DX005 (ip), vehicle: Klucel (hydroxypropylcellulose) (HPC)) was 109 % of control, the T/C (dose: 120.0 mg/kg/injection, schedule: Q01DX005 (ip), vehicle: Klucel (hydroxypropylcellulose) (HPC)) was 110 % of control and the T/C (dose: 240.0 mg/kg/injection, schedule: Q01DX005 (ip), vehicle: Klucel (hydroxypropylcellulose) (HPC)) was 112 % of control.
